The results in this text go back to PubChem BioAssay (NCI).

Among the test systems are ACHN renal; SK-MEL-5 melanoma; U251 CNS; HCT-116 colon; CCRF-CEM leukemia; HOP-62 NSCLC; SK-MEL-2 melanoma; UACC-257 melanoma; HOP-92 NSCLC; HCC-2998 colon.
Test in all cases: DTP human tumour cell line panel, 48 h

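Five concentrations, 48 hours, 96-well plates. GI50 marks 50% less growth. Definition used: TGI = concentration required for complete inhibition of growth.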

As a reminder, the TGI is the concentration giving total growth inhibition. Turning to `CCCO[C@@H]1[C@@H](OC(C)=O)[C@@H](OC(C)=O)C(C)(C)/C=C/[C@H](C)C(=O)[C@@]2(OC(C)=O)C[C@@](C)(OC(C)=O)[C@H](OC(C)=O)[C@@H]2[C@H]2OC(=O)CC[C@@]12OC(=O)c1ccccc1`, the TGI in the assay with ACHN renal, with SK-MEL-5 melanoma, in the assay with U251 CNS, in the assay on HCT-116 colon, in the assay with CCRF-CEM leukemia and in the assay with HOP-62 NSCLC was over 25 µM each time. Moreover, the TGI in the assay with SK-MEL-2 melanoma, in the assay on UACC-257 melanoma, with HOP-92 NSCLC and in the assay with HCC-2998 colon was over 25 µM each time.

For `C(=Nc1ccc2c(c1)Cc1ccccc1-2)c1ccccn1`, the TGI with ACHN renal, in the assay on SK-MEL-5 melanoma, in the assay with U251 CNS, with HCT-116 colon, with CCRF-CEM leukemia and in the assay on HOP-62 NSCLC was over 100 µM throughout. Moreover, the total growth inhibition concentration (TGI) was over 100 µM with SK-MEL-2 melanoma, 79.1 µM in the assay on UACC-257 melanoma and over 100 µM in the assay on HOP-92 NSCLC.

One may read the GI50 as the concentration at which growth is held to half of that of the control. Take `COc1ccc2c(c1)c(-c1nc(-c3c[nH]c4ncccc34)cs1)cn2CCCCN1CCCCC1`: the GI50 in the assay with ACHN renal was 1.66 µM; in the assay with CCRF-CEM leukemia, 1.83 µM; in the assay on HOP-62 NSCLC, 1.48 µM; in the assay with SK-MEL-2 melanoma, 1.8 µM; in the assay on UACC-257 melanoma it was 1.8 µM; in the assay on HOP-92 NSCLC it was 1.18 µM. The GI50 with HCC-2998 colon was 1.74 µM. For the same compound, the TGI came out at 3.04 µM in the assay on ACHN renal; 3.5 µM with CCRF-CEM leukemia; 2.95 µM in the assay with HOP-62 NSCLC; 3.54 µM in the assay with SK-MEL-2 melanoma; 3.35 µM with UACC-257 melanoma; 2.48 µM in the assay on HOP-92 NSCLC. For the same compound, in the assay on HCC-2998 colon, the TGI was 3.29 µM.

As for `COc1ccc(/C=N/n2cnc3c(c2=O)SC(=C(C#N)C#N)N3c2ccccc2)cc1`, the TGI with ACHN renal, in the assay on SK-MEL-5 melanoma, with U251 CNS, in the assay with HCT-116 colon, in the assay on CCRF-CEM leukemia and with HOP-62 NSCLC was over 100 µM in each case. In addition, the TGI in the assay on UACC-257 melanoma, in the assay with HOP-92 NSCLC and with HCC-2998 colon was over 100 µM in each case.

With `CCC(=O)OCN(C)c1nc(N(C)COC(=O)CC)nc(N(C)COC(=O)CC)n1`, the TGI in the assay with SK-MEL-5 melanoma is 52.5 µM; in the assay on U251 CNS, over 100 µM; with HCT-116 colon it was 64 µM; in the assay with CCRF-CEM leukemia it was over 100 µM; in the assay on HOP-62 NSCLC, over 100 µM; in the assay on SK-MEL-2 melanoma, 42 µM. The TGI was over 100 µM in the assay on UACC-257 melanoma, over 100 µM with HOP-92 NSCLC and 68.6 µM with HCC-2998 colon.

Take `O=C1c2ccccc2OCC12OC21C=CC(Cl)=CC1` (centres undefined): the TGI with ACHN renal was over 100 µM; with SK-MEL-5 melanoma, 28.3 µM; with U251 CNS, 44.4 µM; with HCT-116 colon, 43.6 µM; in the assay on HOP-62 NSCLC, 92.1 µM; with SK-MEL-2 melanoma it was 59.1 µM. In addition, the TGI with UACC-257 melanoma was over 100 µM; in the assay with HOP-92 NSCLC, over 100 µM; in the assay with HCC-2998 colon it was 42.2 µM.

Consider `CCCCC1C=Cn2c(=O)oc3c(OC(C)C)c(C)c(O)c1c32` (centres undefined), for which the concentration for total growth inhibition (TGI) in the assay with ACHN renal is 3.35 µM; in the assay on SK-MEL-5 melanoma, 6.59 µM; with U251 CNS, 11 µM; in the assay on HCT-116 colon it was 7.07 µM; in the assay with CCRF-CEM leukemia, 5.1 µM; in the assay on HOP-62 NSCLC, 10.5 µM. Moreover, the TGI is 5.07 µM with SK-MEL-2 melanoma, 8.78 µM in the assay with UACC-257 melanoma, 12.2 µM in the assay with HOP-92 NSCLC and 13.6 µM with HCC-2998 colon.

For `Nc1nc(SCc2ccccc2Cl)c2[nH]cnc2n1`, the TGI with ACHN renal, in the assay with SK-MEL-5 melanoma, with U251 CNS, in the assay on HCT-116 colon, with CCRF-CEM leukemia and in the assay on HOP-62 NSCLC was over 100 µM in each case. For the same compound, the TGI in the assay on SK-MEL-2 melanoma, with UACC-257 melanoma and in the assay with HCC-2998 colon was over 100 µM in each case.

Turning to `CCOC(=O)c1sc2nc(SC)nc(Nc3ccc4c(c3)OCCO4)c2c1N`, the TGI is 19.8 µM in the assay with ACHN renal; 26.7 µM in the assay on SK-MEL-5 melanoma; 21.2 µM in the assay with U251 CNS; 42.1 µM in the assay on HCT-116 colon; over 100 µM in the assay on CCRF-CEM leukemia; 29.5 µM in the assay on HOP-62 NSCLC. For the same compound, the TGI in the assay with SK-MEL-2 melanoma was 33.7 µM; with UACC-257 melanoma it was over 100 µM; in the assay on HOP-92 NSCLC, 27.4 µM; with HCC-2998 colon, over 100 µM.

Regarding `O=C(CBr)c1ccc2cc(Br)c3ccccc3c2c1`, the TGI in the assay on ACHN renal is over 100 µM; with SK-MEL-5 melanoma, 30.2 µM; with U251 CNS, over 100 µM; with HCT-116 colon, over 100 µM; in the assay with CCRF-CEM leukemia it was over 100 µM; in the assay on HOP-62 NSCLC, over 100 µM. Further, the TGI in the assay with SK-MEL-2 melanoma was 45.1 µM; in the assay with UACC-257 melanoma, 49.9 µM; with HOP-92 NSCLC it was 45.7 µM; in the assay on HCC-2998 colon, over 100 µM.

Take `C=CCCC1(C)CCCNC1=S` (centres undefined): the TGI in the assay on ACHN renal, in the assay on SK-MEL-5 melanoma, in the assay with U251 CNS, with HCT-116 colon, with CCRF-CEM leukemia and in the assay on HOP-62 NSCLC was over 100 µM each time. The TGI in the assay on SK-MEL-2 melanoma, in the assay with UACC-257 melanoma, in the assay on HOP-92 NSCLC and in the assay with HCC-2998 colon was over 100 µM throughout.

As to `CCCn1cnc2c(SCc3ccc(Cl)cc3)nc(N)nc21`, the TGI is 33.8 µM in the assay with ACHN renal; 33.4 µM in the assay with SK-MEL-5 melanoma; 74.5 µM with U251 CNS; 44.2 µM with HCT-116 colon; over 100 µM in the assay with CCRF-CEM leukemia; 44.4 µM with HOP-62 NSCLC. Further, the TGI in the assay with SK-MEL-2 melanoma is 41.3 µM; in the assay with UACC-257 melanoma, 41.8 µM; in the assay on HOP-92 NSCLC, over 100 µM; with HCC-2998 colon, 52.5 µM.

Consider `O=C(N[C@@H](Cc1coc2ccccc12)B(O)O)[C@@H]1C[C@H]2CC[C@@H]1O2`, for which the GI50 was 1.93 µM with ACHN renal; 4.25 µM in the assay with SK-MEL-5 melanoma; 17.8 µM in the assay with U251 CNS; 3.25 µM in the assay with HCT-116 colon; 1.2 µM in the assay with CCRF-CEM leukemia; 3.65 µM with HOP-62 NSCLC. In addition, the GI50 in the assay with SK-MEL-2 melanoma is 6.08 µM; in the assay with UACC-257 melanoma it was 6.28 µM; in the assay with HOP-92 NSCLC, 5.06 µM; with HCC-2998 colon it was 5.11 µM. Further, the TGI in the assay with ACHN renal is over 100 µM; in the assay on SK-MEL-5 melanoma, 35.3 µM; with U251 CNS it was over 100 µM; in the assay with HCT-116 colon, 27.1 µM; in the assay on CCRF-CEM leukemia, over 100 µM; with HOP-62 NSCLC it was 43.6 µM. Besides, the TGI in the assay with SK-MEL-2 melanoma is over 100 µM; with UACC-257 melanoma, over 100 µM; in the assay on HOP-92 NSCLC, 80.8 µM; in the assay on HCC-2998 colon, 21.1 µM.
